System: cognitive performance in subjects with AAMI
Experiment: CDR computerized cognitive test battery, 6-week pilot study in Age-Associated Memory Impairment (Example 1)
Type: in vivo, human
Settings: for Quality of Episodic Secondary Memory, LS mean difference vs placebo: overall
Method: A single-center, 6-week, double-blind, randomizes, parallel-group, placebo-controlled, dose-ranging pilot study was performed to evaluate the efficacy, tolerability, and safety of >96% ethyl-EPA in subjects with subjective and objective memory impairment according to generally accepted criteria for Age-Associated Memory Impairment (“AAMI”). The primary objective of the study was to determine the effect of >96% ethyl-EPA 1 g, 2 g, and 4 g daily, compared to placebo, on cognitive performance in subjects with AAMI.
The population for this study was men and women between ages 50 and 70 with self-reported complaints of memory loss, subjective and objective cognitive impairment with a score of at least one standard deviation below that of the mean for age-matched elderly population as determined by the total score of between 13 and 20 from the Paired Associated Learning (“PAL”) subset of the Wechsler Memory Scale, evidence of adequate intellectual function as determined by a scaled score of at least 9 (raw score of at least 32) on the Vocabulary subtest of the Wechsler Adult Intelligence Scale and absence of dementia as determined by a score of 24 or higher on the Mini-Mental State Examination (“MMSE”).
Ninety-four subjects were randomized into one of six groups: 1 g E-EPA daily (n=23), 2 g E-EPA daily (n=24), 4 g E-EPA daily (n=24), 1 g placebo daily (n=7), 2 g placebo daily (n=8), and 4 g placebo daily (n=8). E-EPA was provided as 500 mg soft gel capsules containing >96% E-EPA and 0.2% dl-α-tocopherol as an antioxidant. Placebo capsules contained 467 mg of liquid paraffin and 0.2% dl-α-tocopherol. Ninety-one subjects completed the study. Two subjects in the 2 g E-EPA group and one subject in the 2 g placebo group discontinued the study.
The study consisted of a screening visit, a training visit, and four study visits. At the screening visit, subjects' eligibility was determined through cognitive tests (verbal paired associated learning [PAL] subscale, vocabulary subtest, Memory Assessment Clinics Questionnaire [MAC-Q], mini mental state evaluation [MMSE] and MINI [mini international neuropsychiatric interview; sections 1 and 2 of Diagnostic and Statistical Manual of Mental Disorders, 4th Edition (DSM-IV) plus dysthymia]), haematology, clinical chemistry and 12-lead electrocardiogram (ECG). At the training visit, subjects were shown how to use the CDR computerized system. Subjects took study drug for 6 weeks and on Days 0, 14, 28 and 42, subjects underwent the CDR cognitive test battery.
A selection of tasks from the CDR computerized cognitive assessment system were administered at Visit 2 (training visit), Visit 3 (baseline), Visit 4 (Day 14), Visit 5 (Day 28) and Visit 6 (Day 42). Parallel forms of the tests were presented at each testing session. All tasks were computer-controlled, the information presented on high resolution monitors, and the responses recorded via a response model containing two buttons: one marked ‘no’ and the other ‘yes’. Five CDR composite scores were used as the primary/secondary outcome variables. The task titles were: • Word Presentation • Immediate Word Recall • Picture Presentation • Simple Reaction Time • Digit Vigilance • Choice Reaction Time • Spatial Working Memory • Numeric Working Memory • Delayed Word Recall • Word Recognition • Picture Recognition • Bond-Lader Visual Analogue Scales of Mood and Alertness • Screen, Using the Computer Mouse
To ensure consistency of approach, full training on the cognitive tests and CDR test battery was provided to study site staff and study subjects. The results of each variable were automatically recorded using the machine interface developed by CDR.
Summary statistics were provided for the ITT and Study Per Protocol Populations separately for all composite scores, major and supportive variables. Summary statistics were performed for both the unadjusted and difference from baseline data (i.e. the difference from the time matched predose assessments on Day 0). […]

[1] = post-hoc vs corresponding placebo
[2] = post-hoc vs corresponding placebo, 1 g, Days 14 and 28

CC/C=C\C/C=C\C/C=C\C/C=C\C/C=C\CCCC(=O)OCC [AMR101, all-cis eicosa-5,8,11,14,17-pentaenoic acid ethyl ester]
Immediate Word Recall Accuracy, LS mean difference to placebo (Study Per-Protocol, 1 g, AM 2, p=0.048): statistically significant decreases | Immediate Word Recall Accuracy, LS mean difference to placebo (Study Per-Protocol, 1 g, Day 14, p=0.024): statistically significant decreases | Immediate Word Recall Accuracy, LS mean difference to placebo (Study Per-Protocol, 1 g, Day 14 at PM 2, p=0.019): statistically significant decreases | Word Recognition Sensitivity Index, LS mean difference to placebo (Study Per-Protocol, 1 g, Day 28, p=0.027): statistically significant decreases | Picture Recognition Sensitivity Index, LS mean difference vs placebo (Study Per-Protocol, 1 g, Day 28 at AM 2, p=0.020): statistically significant decreases versus placebo | Picture Recognition Sensitivity Index, LS mean difference vs placebo (Study Per-Protocol, 1 g, Day 28 at PM 2, p=0.026): statistically significant decreases versus placebo | Quality of Episodic Secondary Memory, LS mean difference vs placebo (Study Per-Protocol, 1 g, p=0.043): statistically significant decreases versus placebo | Immediate Word Recall Accuracy, LS mean difference to placebo (Study Per-Protocol, 2 g, AM 1, p=0.029): statistically significant decreases | Immediate Word Recall Accuracy, LS mean difference to placebo (Study Per-Protocol, 2 g, Day 28, p=0.017): statistically significant decreases | Self-Rated Alertness, LS mean difference vs placebo (Study Per-Protocol, 2 g, Day 28, p=0.035): statistically significant decrease in ratings | Immediate Word Recall Accuracy, LS mean difference to placebo (Study Per-Protocol, 2 g, Day 28 at AM 1, p=0.006): statistically significant decreases | Self-Rated Alertness, LS mean difference vs placebo (Study Per-Protocol, 2 g, Day 28 at AM 2, p=0.033): statistically significant decrease in ratings | Quality of Episodic Secondary Memory, LS mean difference vs placebo (Study Per-Protocol, 2 g, p=0.036): statistically significant decreases versus placebo | Word Recognition Sensitivity Index, LS mean difference to placebo (Study Per-Protocol, 4 g, Day 42, p=0.038): statistically significant decreases | Self-Rated Calmness, LS mean difference vs placebo (Study Per-Protocol, 4 g, Day 42 at PM 1, p=0.071): statistical trend for an increase in ratings versus placebo | Delayed Word Recall Accuracy (Study Per-Protocol, ANCOVA): no statistically significant effects of treatment | Digit Vigilance Speed (Study Per-Protocol, ANCOVA): no statistically significant effects of treatment | Immediate Word Recall Accuracy (Study Per-Protocol, ANCOVA): no statistically significant effects of treatment | Numeric Working Memory Speed (Study Per-Protocol, ANCOVA): no statistical significant effects of treatment | Picture Recognition Sensitivity Index (Study Per-Protocol, ANCOVA): no statistically significant effects of treatment | Picture Recognition Speed (Study Per-Protocol, ANCOVA): no statistical significant effects of treatment | Power of Attention (Study Per-Protocol, ANCOVA): no statistically significant effect of treatment | Quality of Episodic Secondary Memory (Study Per-Protocol, ANCOVA): no statistically significant effects of treatment | Self-Rated Alertness (Study Per-Protocol, ANCOVA): no statistically significant effect of treatment | Self-Rated Calmness (Study Per-Protocol, ANCOVA): no statistically significant effect of treatment | Simple Reaction Time (Study Per-Protocol, ANCOVA): no statistically significant effects of treatment | Spatial Working Memory Speed (Study Per-Protocol, ANCOVA): no statistical significant effects of treatment | Speed of Memory (Study Per-Protocol, ANCOVA): no statistical significant effects of treatment | Word Recognition Sensitivity Index (Study Per-Protocol, ANCOVA): no statistically significant effects of treatment | Word Recognition Speed (Study Per-Protocol, ANCOVA): no statistical significant effects of treatment | Self-Rated Contentment (Study Per-Protocol, ANCOVA, p<0.001): statistically significant treatment by day interaction | Choice Reaction Time (Study Per-Protocol, ANCOVA, p=0.013): statistically significant treatment by day interaction | Spatial Working Memory Sensitivity Index (Study Per-Protocol, ANCOVA, p=0.014): statistically significant treatment by day interaction | Quality of Working Memory (Study Per-Protocol, ANCOVA, p=0.021): statistically significant treatment by day interaction | Power of Attention, difference active vs placebo (Study Per-Protocol, any time-point): no difference between active treatment and placebo | Continuity of Attention [1]: no general pattern of effects | Numeric Working Memory Sensitivity Index [1]: only isolated improvements and declines in performance | Quality of Working Memory [1]: only isolated improvements and declines in performance | Self-Rated Calmness [1]: no differences between active treatment and placebo | Power of Attention (post-hoc vs corresponding placebo group, 4 g, Day 42): overall benefit versus the corresponding placebo | Self-Rated Alertness [2]: decreases in ratings | Self-Rated Contentment [2]: decreases in ratings | Choice Reaction Time (post-hoc vs corresponding placebo, 4 g, Day 42): superior to placebo at every time point | Spatial Working Memory Sensitivity Index (post-hoc vs corresponding placebo, 4 g, Day 42, Study PP Population): overall benefit for ethyl-EPA 4 g over placebo | Simple Reaction Time (post-hoc vs corresponding placebo, 4 g, PM 2 collapsed across days, several time-points on Days 14 and 42): improvements in performance | Choice Reaction Time (post-hoc vs corresponding placebo, 4 g, all study days): overall benefit versus corresponding placebo | Quality of Episodic Secondary Memory and contributing subtasks (post-hoc vs corresponding placebo, explained by pre-existing differences between groups): a number of decreases for ethyl-EPA | Subtask measures of Speed of Memory (post-hoc vs corresponding placebo, mostly 1 g): some signs of improvement in performance

From patent US9827219B2, “Compositions and methods for lowering levels of high-sensitivity C-reactive protein (HS-CRP) in a subject” (priority 2012, dated 2017)
